# From patent US12186283B2, “Bismuth-thiol compositions and methods of use” (Microbion Corporation, priority 2018, dated 2025)
# Where “and” joins values, the source holds several entries; their conditions need not be identical. Equal values may be shown once. Read-outs that look alike come from different tables or passages of the source. *1 amine or outer side, *2 acyl side, *3 side chain or, on linkers, in order; H or OH if unused. Where a SMILES comes first, the peptide text is derived from it. Bridges are numbered along the chain shown (N, C = ends). [ ]: non-standard residue; d: D form. The star is where a group is joined. hTyr(3S-OH,4S-OH,3'-OSO3H) = N[C@H](C(=O)O)[C@H](O)[C@@H](O)c1ccc(O)c(OS(=O)(=O)O)c1; Orn(4R-OH,5R-OH) = O=C([C@H](C[C@@H](O)[C@@H](O)N[*:3])N[*:1])[*:2]; Pro(3S-OH,4S-Me) = C[C@H]1CN[C@H](C(=O)O)[C@H]1O; X1 = CCCCCOc1ccc(-c2cc(-c3ccc(C(=O)*)cc3)no2)cc1; Gln(3R-OH) = NC(=O)C[C@@H](O)[C@H](N)C(=O)O; Hyp = O=C(O)[C@@H]1C[C@@H](O)CN1
# Columns and labels:
# Aspergillus spp. = assay: Broth microdilution MIC/MEC, mold (Example 13); assay type: cell-based; details: MEC
# E. coli ATCC 25922 = assay: Broth microdilution MIC, QC organism (Example 13, Table 110); assay type: cell-based, Escherichia coli
# Excerpt: (§1) MECs were only reported where observed.
# Candida krusei [1] = assay: Broth microdilution MIC, yeast (Example 13); assay type: cell-based; details: C. krusei ATCC 6258 (QC, Table 110), comparators, single value
# S. aureus ATCC 29213 [2] = assay: Broth microdilution MIC, QC organism (Example 13, Table 110); assay type: cell-based, Staphylococcus aureus
# Excerpt: as §1
# Candida krusei [3] = details: C. krusei ATCC 6258, CLSI established QC range, cited from earlier work
# Candida spp. [4] = details: C. parapsilosis ATCC 22019, CLSI established QC range, cited from earlier work
# Candida spp. [5] = assay: Broth microdilution MIC, yeast (Example 13), group statement and QC; assay type: cell-based; details: C. parapsilosis ATCC 22019, comparators, single value
# S. aureus ATCC 29213 [6] = details: control strain ATCC 29213 S. aureus; per CLSI M100-S24 or provided by Microbion; cited from earlier work
# P. aeruginosa [7] = details: P. aeruginosa isolate 103, CLSI QC range in parenthesis, cited from earlier work
# P. aeruginosa [8] = assay: Checkerboard FIC assay, BisEDT with CF agents (Example 10); assay type: cell-based, Pseudomonas aeruginosa; details: for MIC: agent alone, as observed during FIC testing
# [9] = system: Burkholderia cepacia complex; assay: as above; assay type: cell-based, Burkholderia spp.; details: for MIC: agent alone, as observed during FIC testing
# P. aeruginosa [10] = assay: Broth microdilution MIC (Example 10)
# [11] = system: Burkholderia cepacia complex; assay: Broth microdilution MIC (Example 10); details: initial MIC testing
# [12] = system: Pseudomonas aeruginosa strain PA01; assay: Bacterial killing curves with and without 10% CF patient sputum
# [13] = Aerosol particle size distribution of nebulized suspensions (cascade impactor / APS); details: exposure aerosols of the rat efficacy study, In-Tox Mercer Impactor
# [14] = A. flavus ATCC 204304 (QC, Table 110)
# [15] = A. fumigatus ATCC MYA-3626 (QC, Table 110)
smiles,measurement,setting,value
CC[C@H](C)C[C@H](C)CCCCCCCCC(=O)N[C@H]1C[C@@H](O)[C@@H](NCCN)NC(=O)[C@@H]2[C@@H](O)CCN2C(=O)[C@H]([C@H](O)CCN)NC(=O)[C@H]([C@H](O)[C@@H](O)c2ccc(O)cc2)NC(=O)[C@@H]2C[C@@H](O)CN2C(=O)[C@H]([C@@H](C)O)NC1=O [Caspofungin],MIC 24 hr (MEC),Aspergillus spp.; [14],0.12
same,MIC 24 hr,E. coli ATCC 25922,> 64 µg/mL
same,MIC 24 hr,Candida krusei [1],0.25 µg/mL
same,MIC 48 hr,Candida krusei [1],0.25 µg/mL
same,MIC 24 hr,S. aureus ATCC 29213 [2],> 64 µg/mL
same,QC Range 24 hr,Candida krusei [3],0.12-1
same,QC Range 48 hr,Candida krusei [3],0.25-2
same,QC Range 24 hr,Candida spp. [4],0.25-1
same,QC Range 48 hr,Candida spp. [4],0.5-4
same,MIC 24 hr,Candida spp. [5],0.25 µg/mL
same,MIC 48 hr,Candida spp. [5],0.5 µg/mL
CC[C@H]1OC(=O)[C@H](C)[C@@H](O[C@H]2C[C@@](C)(OC)[C@@H](O)[C@H](C)O2)[C@H](C)[C@@H](O[C@@H]2O[C@H](C)C[C@H](N(C)C)[C@H]2O)[C@](C)(OC)C[C@@H](C)C(=O)[C@H](C)[C@@H](O)[C@]1(C)O [Clarithromycin],Expected MIC: acceptable range,S. aureus ATCC 29213 [6],0.12 to 0.5 µg/mL
same,Expected MIC: goal,S. aureus ATCC 29213 [6],0.25 µg/mL
"CCCCCOc1ccc(-c2cc(-c3ccc(C(=O)N[C@H]4C[C@@H](O)[C@@H](O)NC(=O)[C@@H]5[C@@H](O)[C@@H](C)CN5C(=O)[C@H]([C@H](O)CC(N)=O)NC(=O)[C@H]([C@H](O)[C@@H](O)c5ccc(O)c(OS(=O)(=O)O)c5)NC(=O)[C@@H]5C[C@@H](O)CN5C(=O)[C@H]([C@@H](C)O)NC4=O)cc3)no2)cc1 [Micafungin] (X1-[Orn(4R-OH,5R-OH)]T[Hyp][hTyr(3S-OH,4S-OH,3'-OSO3H)][Gln(3R-OH)][Pro(3S-OH,4S-Me)]; lactam 1-C)",MIC 24 hr (MEC),Aspergillus spp.; [14],0.06
same,MIC 48 hr (MEC),Aspergillus spp.; [14],0.008
same,MIC 24 hr (MEC),Aspergillus spp.; [15],0.03
same,MIC 48 hr (MEC),Aspergillus spp.; [15],0.008
same,MIC 24 hr,E. coli ATCC 25922,> 64 µg/mL
same,MIC 24 hr,Candida krusei [1],0.5 µg/mL
same,MIC 48 hr,Candida krusei [1],0.5 µg/mL
same,MIC 24 hr,S. aureus ATCC 29213 [2],> 64 µg/mL
same,QC Range 24 hr,Candida krusei [3],0.12-0.5
same,QC Range 48 hr,Candida krusei [3],0.12-0.5
same,QC Range 24 hr,Candida spp. [4],0.5-2
same,QC Range 48 hr,Candida spp. [4],0.5-4
same,MIC 24 hr,Candida spp. [5],0.5 µg/mL
same,MIC 48 hr,Candida spp. [5],2 µg/mL
NC[C@H]1O[C@H](O[C@H]2[C@H](O)[C@@H](O[C@H]3O[C@H](CO)[C@@H](O)[C@H](N)[C@H]3O)[C@H](N)C[C@@H]2N)[C@H](N)C[C@@H]1O [TOB],"MIC, CLSI QC range",P. aeruginosa [7]; Table 24,(0.25-1) μg/mL
same,"MIC, CLSI QC range",P. aeruginosa [7]; Table 26,(0.25-1) μg/mL
same,MIC,P. aeruginosa [8]; P. aeruginosa isolate 6322,128 µg/mL
same,MIC,P. aeruginosa [8]; P. aeruginosa isolate 6977,128 µg/mL
same,MIC,P. aeruginosa [8]; P. aeruginosa isolate 7745,0.5 µg/mL
same,MIC,P. aeruginosa [8]; P. aeruginosa isolate 8798,16 µg/mL
same,MIC,P. aeruginosa [8]; P. aeruginosa isolate 9108,0.5 µg/mL
same,MIC,[9]; B. cenocepacia isolate 0548,32 µg/mL
same,MIC,[9]; B. cenocepacia isolate 0813,256 µg/mL
same,MIC,[9]; B. cepacia isolate 1793,16 µg/mL
same,MIC,"P. aeruginosa [10]; P. aeruginosa isolate 103 (ATCC 25922), QC strain, initial MIC testing",1 µg/mL
same,MIC,"P. aeruginosa [10]; P. aeruginosa isolate 103 (ATCC 25922), during FIC testing, each agent tested alone for QC, one replicate",1 µg/mL
same,MIC,"P. aeruginosa [10]; P. aeruginosa isolate 1497 (TOB-R, AMK-R, CIP-I, AZT-R, COL-R), initial MIC testing",16 µg/mL
same,MIC,"P. aeruginosa [10]; P. aeruginosa isolate 1530 (TOB-R, AMK-R, CIP-R), initial MIC testing",32 µg/mL
same,MIC,"P. aeruginosa [10]; P. aeruginosa isolate 1553 (TOB-R, AMK-R, CIP-R), initial MIC testing",>256 µg/mL
same,MIC,"P. aeruginosa [10]; P. aeruginosa isolate 6322 (MEM-R, TOB-R, AMK-R, CIP-R, AZT-R), initial MIC testing",128 µg/mL
same,MIC,"P. aeruginosa [10]; P. aeruginosa isolate 6977 (MEM-I, TOB-R, CIP-R, AZT-I), initial MIC testing",128 µg/mL
same,MIC,"P. aeruginosa [10]; P. aeruginosa isolate 7745 (MEM-R, CIP-R, AZT-R), initial MIC testing",0.5 µg/mL
same,MIC,"P. aeruginosa [10]; P. aeruginosa isolate 7754 (MEM-R, TOB-R, CIP-R, AZT-I), initial MIC testing",32 µg/mL
same,MIC,"P. aeruginosa [10]; P. aeruginosa isolate 7762 (MEM-I, CIP-I), initial MIC testing",1 µg/mL
same,MIC,"P. aeruginosa [10]; P. aeruginosa isolate 7871 (MEM-R, AZT-I), initial MIC testing",0.5 µg/mL
same,MIC,"P. aeruginosa [10]; P. aeruginosa isolate 7874, initial MIC testing",0.5 µg/mL
same,MIC,"P. aeruginosa [10]; P. aeruginosa isolate 7886 (MEM-R, CIP-R, AZT-R), initial MIC testing",1 µg/mL
same,MIC,"P. aeruginosa [10]; P. aeruginosa isolate 8797 (MEM-R, TOB-R, AMK-R, CIP-R, AZT-R, COL-R), initial MIC testing",>256 µg/mL
same,MIC,"P. aeruginosa [10]; P. aeruginosa isolate 8798 (MEM-R, TOB-R, AMK-R, CIP-R, AZT-R, COL-R), initial MIC testing",32 µg/mL
same,MIC,"P. aeruginosa [10]; P. aeruginosa isolate 9108 (CIP-R, AZT-I), initial MIC testing",0.5 µg/mL
same,MIC,[11]; B. cenocepacia isolate 0548 (CIP-R),64 µg/mL
same,MIC,[11]; B. cenocepacia isolate 0813 (CPI-I),256 µg/mL
same,MIC,[11]; B. cepacia isolate 0546,64 µg/mL
same,MIC,[11]; B. cepacia isolate 1793,64 µg/mL
same,MIC,[11]; B. cepacia isolate 9040,8 µg/mL
same,MIC,[11]; B. multivorans isolate 1791,64 µg/mL
same,MIC,[11]; B. multivorans isolate 5665 (CIP-I),64 µg/mL
same,MIC,[11]; B. multivorans isolate 8952 (CIP-I),16 µg/mL
"NC[C@H]1O[C@H](O[C@H]2[C@H](O)[C@@H](O[C@H]3O[C@H](CO)[C@@H](O)[C@H](N)[C@H]3O)[C@H](N)C[C@@H]2N)[C@H](N)C[C@@H]1O [Tobramycin, reference compound]",CFU higher in cultures with sputum than without,"[12]; PA01, 1 μg/mL, 10% CF sputum, most time points",0.5-1 log CFU/mL
same,effect of CF patient sputum on bactericidal activity,"[12]; PA01, 10% CF patient sputum",partially inhibits
same,FICB,"P. aeruginosa [8]; P. aeruginosa 6322, FIC of Tobramycin in combination with BisEDT, panel rows C-G",1
same,MICB,"P. aeruginosa [8]; P. aeruginosa 6322, MIC of Tobramycin in combination with BisEDT, panel rows C-G",128 µg/mL
same,FICB,"P. aeruginosa [8]; P. aeruginosa 6977, Tobramycin FIC in combination with BisEDT, per checkerboard row",2
same,MICB,"P. aeruginosa [8]; P. aeruginosa 6977, Tobramycin MIC in combination with BisEDT, per checkerboard row",256 µg/mL
same,FICB,"P. aeruginosa [8]; P. aeruginosa 7745, Tobramycin FIC in combination with BisEDT, per checkerboard row",1
same,MICB,"P. aeruginosa [8]; P. aeruginosa 7745, Tobramycin MIC in combination with BisEDT, per checkerboard row",0.5 µg/mL
same,FICB,"P. aeruginosa [8]; P. aeruginosa 9108, Tobramycin FIC in combination with BisEDT, per checkerboard row",1
same,MICB,"P. aeruginosa [8]; P. aeruginosa 9108, Tobramycin MIC in combination with BisEDT, per checkerboard row",0.5 µg/mL
same,FICB,"[9]; B. cenocepacia 548, FIC of Tobramycin in combination with BisEDT",0.25
same,FICB,"[9]; B. cenocepacia 813, FIC of Tobramycin in combination with BisEDT",1
same,FICB,"[9]; B. cepacia 546, Tobramycin FIC in combination with BisEDT, per checkerboard row",0.5
same,MICB,"[9]; B. cepacia 546, Tobramycin MIC in combination with BisEDT, per checkerboard row",16 µg/mL
same,FICB,"[9]; B. cepacia 1793, Tobramycin FIC in combination with BisEDT, per checkerboard row",0.5 and 1
same,MICB,"[9]; B. cepacia 1793, Tobramycin MIC in combination with BisEDT, per checkerboard row",8 µg/mL and 16 µg/mL
same,FICB,"[9]; B. multivorans 1795, FIC of Tobramycin in combination with BisEDT",1
same,MICB,"[9]; B. multivorans 1795, MIC of Tobramycin in combination with BisEDT",>256 µg/mL
same,MMAD,[13],2.81 μm
